Earlier results, collected in paper PMC7522491 (Molecular Metabolism, 2020).
Where no end group is shown, it is not given here.

How the values were obtained:
[1] = infusion into the portal circulation, dogs
[2] = administration in mice

| Molecule | hepatic insulin clearance [1] | blood insulin levels / insulin clearance [2] |
| --- | --- | --- |
| CCCCCCCC/C=C\CCCCCCCC(=O)O [oleate] | suppressed hepatic insulin clearance |  |
| glucagon-like peptide-1 (HAEGTFTSDVSSYLEGQAAKEFIAWLVKGR; ends and bridges not checked; UniProt P55095 98-127, looked up) [GLP-1, incretin hormone administered in mice (literature)] |  | increased blood insulin levels in part by reducing insulin clearance |
